Here are results for 2 compounds from patent US20240391885A1, “FORMS OF LINERIXIBAT” (GLAXOSMITHKLINE INTELLECTUAL PROPERTY (NO. 2) LIMITED, priority 2020, published 2024).

Structures are written as SMILES. Values after ≈ are worked out from the molar mass of the structure shown. Some results are limits rather than exact numbers.

Series [1] is described as follows: Solubility of linerixibat drug substance over pH 1.2-6.8 at 37±1° C. (Experiment 8a). It is filed as physicochemical. As for the experimental part: The solubility of linerixibat drug substance, in respect of Form I and Form III, was determined over the pH range of 1.2-6.8 at 37±1° C. Eight pH values within this range, including buffers at pH 1.2, 4.5 and 6.8 were evaluated. The therapeutic dose for linerixibat is 40 mg.
• SGF=simulated gastric fluid • BR=Britton Robinson

Series [2] can be described thus: Solubility of drug substance samples in biorelevant media and sodium acetate buffer (Experiment 8b). In kind it is physicochemical. An excerpt:
Solubility data was obtained for drug substance samples of linerixibat Form I, linerixibat Form III, and additionally for a sample of Form I compressed to 100 MPa which therefore contained an amount of Form III, in order to replicate typical forces encountered during tablet manufacture.
The media used for the drug substance samples were biorelevant media likely to be experienced in the stomach and the intestine, namely Simulated Gastric Fluid (SGF) over an increasing pH range (1.6, 2.0 and 4.0) and Fasted State Simulated Intestinal Fluid (FaSSIF) at a pH of 6.5. Solubility data was also obtained in 50 mM sodium acetate buffer pH 4.5.

Series [3] can be described thus: Miniaturised shake flask solubility in Britton-Robinson buffers and biorelevant media (Experiment 8c). The conditions noted are these: 37° C., 1, 4 and 24 hours; FIG. 25. In kind it is physicochemical. On the procedure:
Solubility of Form I and Form III was also measured in Britton-Robinson buffers (pH 2-8), determined and compared using a standardised miniaturised shake flask method via an automated platform using a development HPLC method for quantification post centrifugation and filtration. Samples were run at 37° C. and performed as 2 replicate preparations for each pH condition and 4 replicate preparations for each biorelevant media condition at 1, 4 and 24 hours.

Series [4] in a line: Storage stability of drug substance by HPLC, XRPD and SSNMR. It is filed as physicochemical. The conditions noted are these: 1 month of storage at 50° C./ambient RH.
Series [5] is described as follows: Dissolution of linerixibat tablets (USP <711> Apparatus II). It is filed as physicochemical. The conditions noted are these: at both gastric and intestinal pH (pH 1.2 and pH 6.8). On the procedure: The dissolution procedure developed for Linerixibat Tablets, 40 mg, is determined as directed in USP<711> and the method parameters are presented in Table G. The percentage of dissolved drug is currently determined by gradient reversed-phase HPLC.
The above dissolution method at pH 6.8 was applied to two batches of Linerixibat Tablets, 40 mg and the profiles obtained are shown in FIG. 24.

A short description of series [6]: Systemic absorption of linerixibat. The conditions noted are these: in vivo.

As for `CCCC[C@]1(CC)CS(=O)(=O)c2cc(CNC(CC(=O)O)CC(=O)O)c(OC)cc2[C@@H](c2ccccc2)N1` [Form III], in series [1] (Britton Robinson buffer, 37 °C, pH 3.7, aqueous buffer, thermodynamic from solid, nominal pH 3.7, BR buffer, 1-hr timepoint), the solubility (commonly how much of the substance goes into solution per volume) at 1 h was 104 µg/mL (≈ 190 µM). For the same compound, the concentration in solution in series [1] (Britton Robinson buffer, 37 °C, pH 3.7, aqueous buffer, thermodynamic from solid, nominal pH 3.7, BR buffer, 4-hr timepoint) (solubility at 4 h) came to 121 µg/mL (≈ 221 µM). The compound also yielded a solubility at 24 h in series [1] (Britton Robinson buffer, 37 °C, pH 3.7, aqueous buffer, thermodynamic from solid, nominal pH 3.7, BR buffer, 24-hr timepoint) of 129 µg/mL (≈ 236 µM). Also, the solubility classification result in series [1] (all pHs in the physiological range except close to the solubility minimum (between pH 3.2 and pH 4.2), high solubility = above 0.16 mg/mL (40 mg in 250 mL)) is on record as “highly soluble”. Moreover, the Solubility – broadly, the concentration that dissolves in the medium under given conditions – in series [1] (nominal pH 1.2, SGF, 37° C., 1-hr timepoint) was greater than 1000 µg/mL; in series [1] (nominal pH 1.2, SGF, 37° C., 4-hr timepoint) it was greater than 1000 µg/mL; in series [1] (nominal pH 1.2, SGF, 37° C., 24-hr timepoint), greater than 1000 µg/mL; in series [1] (nominal pH 3.0, BR buffer, 37° C., 1-hr timepoint) it was 166 µg/mL (≈ 304 µM); in series [1] (nominal pH 3.0, BR buffer, 37° C., 4-hr timepoint), 205 µg/mL (≈ 375 µM); in series [1] (nominal pH 3.0, BR buffer, 37° C., 24-hr timepoint), 238 µg/mL (≈ 435 µM). Also, the Solubility stood at 103 µg/mL (≈ 188 µM) in series [1] (nominal pH 3.5, BR buffer, 37° C., 1-hr timepoint); 122 µg/mL (≈ 223 µM) in series [1] (nominal pH 3.5, BR buffer, 37° C., 4-hr timepoint); 130 µg/mL (≈ 238 µM) in series [1] (nominal pH 3.5, BR buffer, 37° C., 24-hr timepoint); 119 µg/mL (≈ 218 µM) in series [1] (nominal pH 4.0, BR buffer, 37° C., 1-hr timepoint); 137 µg/mL (≈ 251 µM) in series [1] (nominal pH 4.0, BR buffer, 37° C., 4-hr timepoint); 147 µg/mL (≈ 269 µM) in series [1] (nominal pH 4.0, BR buffer, 37° C., 24-hr timepoint). Besides, the Solubility is 199 µg/mL (≈ 364 µM) in series [1] (nominal pH 4.5, Acetate buffer, 37° C., 1-hr timepoint); 252 µg/mL (≈ 461 µM) in series [1] (nominal pH 4.5, Acetate buffer, 37° C., 4-hr timepoint); 310 µg/mL (≈ 567 µM) in series [1] (nominal pH 4.5, Acetate buffer, 37° C., 24-hr timepoint); 342 µg/mL (≈ 626 µM) in series [1] (nominal pH 5.0, BR buffer, 37° C., 1-hr timepoint); 466 µg/mL (≈ 852 µM) in series [1] (nominal pH 5.0, BR buffer, 37° C., 4-hr timepoint); 620 µg/mL (≈ 1130 µM) in series [1] (nominal pH 5.0, BR buffer, 37° C., 24-hr timepoint). For the same compound, the Solubility in series [1] (nominal pH 6.8, Phosphate buffer, 37° C., 1-hr timepoint) is greater than 1000 µg/mL; in series [1] (nominal pH 6.8, Phosphate buffer, 37° C., 4-hr timepoint) it was greater than 1000 µg/mL; in series [1] (nominal pH 6.8, Phosphate buffer, 37° C., 24-hr timepoint) it was greater than 1000 µg/mL; in series [2] (50 mM Sodium Acetate Buffer pH 4.5, 1 Hour, listed as Form 3) it was 290 µg/mL (≈ 530 µM); in series [2] (50 mM Sodium Acetate Buffer pH 4.5, 4 Hours, listed as Form 3), 290 µg/mL (≈ 530 µM); in series [2] (50 mM Sodium Acetate Buffer pH 4.5, 24 Hours, listed as Form 3), 280 µg/mL (≈ 512 µM). For the same compound, the Solubility in series [2] (FaSSIF pH 6.5, 1 Hour, listed as Form 3) came out at 5200 µg/mL (≈ 9510 µM); in series [2] (FaSSIF pH 6.5, 4 Hours, listed as Form 3) it was 5310 µg/mL (≈ 9710 µM); in series [2] (FaSSIF pH 6.5, 24 Hours, listed as Form 3), 5320 µg/mL (≈ 9730 µM); in series [2] (SGF pH 1.6, 1 Hour, listed as Form 3) it was 7540 µg/mL (≈ 13800 µM); in series [2] (SGF pH 1.6, 4 Hours, listed as Form 3), 7900 µg/mL (≈ 14500 µM); in series [2] (SGF pH 1.6, 24 Hours, listed as Form 3) it was 8620 µg/mL (≈ 15800 µM). The Solubility in series [2] (SGF pH 2.0, 1 Hour) worked out at 1490 µg/mL (≈ 2730 µM); in series [2] (SGF pH 2.0, 4 Hours, listed as Form 3), 1580 µg/mL (≈ 2890 µM); in series [2] (SGF pH 2.0, 24 Hours, listed as Form 3), 1700 µg/mL (≈ 3110 µM); in series [2] (SGF pH 4.0, 1 Hour, listed as Form 3), 160 µg/mL (≈ 293 µM); in series [2] (SGF pH 4.0, 4 Hours, listed as Form 3), 170 µg/mL (≈ 311 µM); in series [2] (SGF pH 4.0, 24 Hours, listed as Form 3), 190 µg/mL (≈ 348 µM). Moreover, the “difference in solubility between Form I and Form III” value in series [1] (pH 1.2-6.8, 37±1° C.) is recorded as “no significant difference”. Further, the “solubility comparison of the forms” value in series [2] (all investigated physiologically relevant pH values (1.6 to 6.5)) was “Forms I and III have very similar solubilities at all investigated physiologically”. For the same compound, the “solubility comparison in biorelevant media” value in series [3] is on record as “very similar”. The “change of form or drug-related impurity content” value in series [4] was “Laboratory isolated Form III drug substance demonstrated no change in form”.
Take `CCCC[C@]1(CC)CS(=O)(=O)c2cc(CNC(CC(=O)O)CC(=O)O)c(OC)cc2[C@@H](c2ccccc2)N1` [linerixibat, 3-({[(3R,5R)-3-butyl-3-ethyl-7-(methyloxy)-1,1-dioxido-5-phenyl-2,3,4,5-tetrahydro-1,4-benzothiazepin-8-yl]methyl}amino)pentanedioic acid]: the Solubility in series [1] (buffer, 37 °C, pH 1.2, simulated gastric fluid, thermodynamic from solid, pH 1.2 (gastric pH), read-out: solubility) was greater than 1000 µg/mL; in series [1] (buffer, 37 °C, pH 6.8, aqueous buffer, thermodynamic from solid, pH 6.8 (intestinal pH), read-out: solubility) it was greater than 1000 µg/mL. In series [5], the “time to full release” value is 5 min. For the same compound, the systemic absorption result in series [6] is “minimal systemic absorption”.
